In ChEMBL document CHEMBL1201862, “PubChem BioAssay data set” (2004):
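In this assay, cells in 96-well plates receive the compound at five concentrations for 48 hours. Endpoints are linearly interpolated between the surrounding concentrations. Here, GI50 denotes the concentration required for 50% inhibition of growth.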 Calls of active or inactive are those of the source. Cut-off read from the data, not from the text of the source: active = GI50 up to about 1.1 µM and inactive = higher.

Legend:
Experiment in all cases: inhibition of tumour cell growth, NCI panel, 48 h
786-0 = test system: 786-0
CAKI-1 = test system: CAKI-1
EKVX = test system: EKVX
HOP-92 = test system: HOP-92
KM12 = test system: KM12
M14 = test system: M14
NCI-H23 = test system: NCI-H23
SF-268 = test system: SF-268
SF-295 = test system: SF-295
SK-MEL-5 = test system: SK-MEL-5
SNB-19 = test system: SNB-19
SNB-75 = test system: SNB-75
SR = test system: SR
TK-10 = test system: TK-10
UACC-257 = test system: UACC-257
UO-31 = test system: UO-31
HL-60 = test system: HL-60

Structure (SMILES)	GI50 (786-0)	GI50 (CAKI-1)	GI50 (EKVX)	GI50 (HOP-92)	GI50 (KM12)	GI50 (M14)	GI50 (NCI-H23)	GI50 (SF-268)	GI50 (SF-295)	GI50 (SK-MEL-5)	GI50 (SNB-19)	GI50 (SNB-75)	GI50 (SR)	GI50 (TK-10)	GI50 (UACC-257)	GI50 (UO-31)	GI50 (HL-60)
CC(C)CS(=O)(=O)/C(=C(\c1ccc(Br)cc1)S(=O)(=O)CC(C)C)c1ccc(Br)cc1	> 100 µM (inactive)	> 100 µM (inactive)	> 100 µM (inactive)	> 100 µM (inactive)	> 100 µM (inactive)	> 100 µM (inactive)	> 100 µM (inactive)	> 100 µM (inactive)	> 100 µM (inactive)	1.41 µM (inactive)	> 100 µM (inactive)	38.3 µM (inactive)	> 100 µM (inactive)	> 100 µM (inactive)	> 100 µM (inactive)	> 100 µM (inactive)	–
O=C(O)c1ccccc1[Se][Se]c1ccccc1C(=O)O	75.2 µM (inactive)	61.8 µM (inactive)	–	39 µM (inactive)	26.8 µM (inactive)	72.9 µM (inactive)	47.5 µM (inactive)	40.2 µM (inactive)	28.4 µM (inactive)	> 100 µM (inactive)	11.2 µM (inactive)	29.5 µM (inactive)	–	> 100 µM (inactive)	49.5 µM (inactive)	2.73 µM (inactive)	35.9 µM (inactive)
COc1ccc2cc1Oc1ccc(cc1)CC1c3cc4c(cc3CCN1C)Oc1c(OC)cc3c(c1O4)C(C2)N(C)CC3 (stereo unspecified)	7.66 µM (inactive)	–	9.79 µM (inactive)	–	2.11 µM (inactive)	1.64 µM (inactive)	4.26 µM (inactive)	2.77 µM (inactive)	1.98 µM (inactive)	8.57 µM (inactive)	3.86 µM (inactive)	2.56 µM (inactive)	1.53 µM (inactive)	15.6 µM (inactive)	–	–	1.96 µM (inactive)
CCOC(=O)/C(I)=C/c1cc(OC)c(OC)c(OC)c1	4.44 µM (inactive)	4.27 µM (inactive)	15.8 µM (inactive)	11.6 µM (inactive)	6.4 µM (inactive)	3.87 µM (inactive)	3.08 µM (inactive)	1.36 µM (inactive)	9.91 µM (inactive)	7.83 µM (inactive)	7.64 µM (inactive)	28.8 µM (inactive)	2.98 µM (inactive)	19.3 µM (inactive)	10.8 µM (inactive)	5.79 µM (inactive)	3.67 µM (inactive)
[O-][S+]1c2ccccc2N=C(c2cccc3ccccc23)CC1c1cccc2ccccc12 (stereo unspecified)	24.5 µM (inactive)	24.8 µM (inactive)	21.4 µM (inactive)	–	15.2 µM (inactive)	14.5 µM (inactive)	20.3 µM (inactive)	22.2 µM (inactive)	32.1 µM (inactive)	5.52 µM (inactive)	21 µM (inactive)	23.1 µM (inactive)	24.1 µM (inactive)	31.2 µM (inactive)	17.1 µM (inactive)	23.9 µM (inactive)	10.8 µM (inactive)
C1CN2CCO[SiH](O1)OCC2	> 100 µM (inactive)	> 100 µM (inactive)	> 100 µM (inactive)	–	> 100 µM (inactive)	–	> 100 µM (inactive)	> 100 µM (inactive)	> 100 µM (inactive)	> 100 µM (inactive)	> 100 µM (inactive)	> 100 µM (inactive)	> 100 µM (inactive)	> 100 µM (inactive)	> 100 µM (inactive)	> 100 µM (inactive)	> 100 µM (inactive)
O=c1[nH]c(=O)n(C2CC(O)C(CO)O2)cc1C#Cc1cc(F)cc(F)c1 (stereo unspecified)	> 100 µM (inactive)	> 100 µM (inactive)	> 100 µM (inactive)	–	> 100 µM (inactive)	> 100 µM (inactive)	> 100 µM (inactive)	> 100 µM (inactive)	> 100 µM (inactive)	> 100 µM (inactive)	> 100 µM (inactive)	48.9 µM (inactive)	–	–	> 100 µM (inactive)	> 100 µM (inactive)	–
COC(=O)c1nc(C(=O)OC)c2c([nH]c3ccccc32)c1C(=O)OC	> 100 µM (inactive)	> 10 µM (inactive)	–	> 100 µM (inactive)	> 100 µM (inactive)	> 100 µM (inactive)	> 100 µM (inactive)	–	91.4 µM (inactive)	9.79 µM (inactive)	–	41.5 µM (inactive)	70.3 µM (inactive)	> 100 µM (inactive)	> 100 µM (inactive)	21.3 µM (inactive)	–
COc1ccc(/C=C2\CCC(CCN(C)C)(C3=CCCC3)C2=O)cc1Br (stereo unspecified)	3.78 µM (inactive)	8.81 µM (inactive)	0.0306 µM (active)	2.97 µM (inactive)	3.73 µM (inactive)	1.79 µM (inactive)	13.9 µM (inactive)	7.03 µM (inactive)	3.85 µM (inactive)	1.71 µM (inactive)	9.44 µM (inactive)	4.49 µM (inactive)	1.51 µM (inactive)	6.93 µM (inactive)	2.43 µM (inactive)	5.35 µM (inactive)	2.52 µM (inactive)
CS(=O)(=O)c1c(N)c2nc(Cl)cn2c2nc3ccccc3nc12	62.4 µM (inactive)	> 100 µM (inactive)	> 100 µM (inactive)	–	> 100 µM (inactive)	> 100 µM (inactive)	68.9 µM (inactive)	> 100 µM (inactive)	> 100 µM (inactive)	> 100 µM (inactive)	> 100 µM (inactive)	81.3 µM (inactive)	> 100 µM (inactive)	–	> 100 µM (inactive)	> 100 µM (inactive)	–
C=CCC(OCCOCC)c1cc(OCCOCC)ccc1OC (stereo unspecified)	> 100 µM (inactive)	> 100 µM (inactive)	> 100 µM (inactive)	> 100 µM (inactive)	> 100 µM (inactive)	> 100 µM (inactive)	–	> 100 µM (inactive)	> 100 µM (inactive)	> 100 µM (inactive)	> 100 µM (inactive)	> 100 µM (inactive)	–	> 100 µM (inactive)	> 100 µM (inactive)	> 100 µM (inactive)	> 100 µM (inactive)
O=C1c2ccccc2C(=O)c2c(NCCNCCO)ccc(O)c21	3.66 µM (inactive)	2.64 µM (inactive)	3.98 µM (inactive)	3.21 µM (inactive)	2.52 µM (inactive)	3.23 µM (inactive)	2.59 µM (inactive)	2.14 µM (inactive)	4.35 µM (inactive)	3.18 µM (inactive)	2.89 µM (inactive)	3.63 µM (inactive)	–	4.65 µM (inactive)	3.29 µM (inactive)	1.49 µM (inactive)	2.61 µM (inactive)
Cc1ccc(C)c(NC(=O)CC/C(=N\NC(=O)C(=O)NN)C(C)C(=O)c2ccc(O)cc2)c1 (stereo unspecified)	> 100 µM (inactive)	> 100 µM (inactive)	> 100 µM (inactive)	> 100 µM (inactive)	> 100 µM (inactive)	> 100 µM (inactive)	> 100 µM (inactive)	> 100 µM (inactive)	> 100 µM (inactive)	> 100 µM (inactive)	> 100 µM (inactive)	> 100 µM (inactive)	> 100 µM (inactive)	> 100 µM (inactive)	> 100 µM (inactive)	> 100 µM (inactive)	–
O=C1[C@H]2ON(c3ccccc3)C(c3ccc(Cl)cc3)[C@H]2C(=O)N1c1ccc(Cc2ccc(N3C(=O)[C@@H]4ON(c5ccccc5)C(c5ccc(Cl)cc5)[C@@H]4C3=O)cc2)cc1 (stereo partly specified)	> 100 µM (inactive)	> 100 µM (inactive)	> 100 µM (inactive)	–	> 100 µM (inactive)	18.7 µM (inactive)	> 100 µM (inactive)	> 100 µM (inactive)	> 100 µM (inactive)	61.7 µM (inactive)	> 100 µM (inactive)	> 100 µM (inactive)	> 100 µM (inactive)	> 100 µM (inactive)	> 100 µM (inactive)	> 100 µM (inactive)	> 100 µM (inactive)
COC(=O)[C@@]1(C)C(=O)CC[C@@H]1C=O	> 100 µM (inactive)	> 100 µM (inactive)	> 100 µM (inactive)	–	> 100 µM (inactive)	> 100 µM (inactive)	> 100 µM (inactive)	> 100 µM (inactive)	> 100 µM (inactive)	> 100 µM (inactive)	> 100 µM (inactive)	–	82.2 µM (inactive)	> 100 µM (inactive)	> 100 µM (inactive)	> 100 µM (inactive)	60.5 µM (inactive)
CCCCCC(/C=C/[C@@H]1[C@H]2CC(=O)O[C@H]2C[C@H]1N1CCOCC1)OC1CCCO1 (stereo partly specified)	> 100 µM (inactive)	> 100 µM (inactive)	> 100 µM (inactive)	> 100 µM (inactive)	> 100 µM (inactive)	> 100 µM (inactive)	> 100 µM (inactive)	> 100 µM (inactive)	> 100 µM (inactive)	> 100 µM (inactive)	> 100 µM (inactive)	> 100 µM (inactive)	–	> 100 µM (inactive)	> 100 µM (inactive)	> 100 µM (inactive)	> 100 µM (inactive)
CC(=O)OCCOCNC(=S)N/N=C(\C)c1ccco1	> 100 µM (inactive)	–	> 100 µM (inactive)	–	> 100 µM (inactive)	> 100 µM (inactive)	> 100 µM (inactive)	> 100 µM (inactive)	> 100 µM (inactive)	> 100 µM (inactive)	> 100 µM (inactive)	61 µM (inactive)	–	> 100 µM (inactive)	> 100 µM (inactive)	> 100 µM (inactive)	–
